Results: PMC6394301, “Evaluation of the anticancer potential of a sulphonamide carbonic anhydrase IX inhibitor on cervical cancer cells” (Journal of Enzyme Inhibition and Medicinal Chemistry, 2019)

Columns and labels:
HeLa cells [1] = assay: Intracellular total antioxidant status (TAS); type: cell-based, human; details: positive control group
Method: The cellular TAS amount was determined using a new colourimetric assay method, which was improved by Erel[25]. This process is withstanding on the bleaching of the ostensible colour of the 2,2′-azino-bis [3-ethylbenzothiazoline-6-sulfonic acid] (ABTS) radical cation via the action of antioxidants. Upon the addition of a sample, the oxidative reactions initiated by the hydroxyl radicals present in the reaction mixture are inhibited by the antioxidant components of the lysate, preventing colour change and thus providing an effective measure of the TAS value of the lysate. The precision of this test has high accuracy (less than 3% error rate). Analysis results were expressed as mmol Trolox equiv/mg protein.

HeLa cells [2] = assay: Oxidative stress index (OSI); type: cell-based, human
Method: Percentage of TOS to TAS amount is taken into account in order to determine the oxidative stress index (OSI)[27]. Oxidative stress index was determined according to the equation outlined below:
OSI = (TOS (μ mol H2O2 equiv/g))/(TAS (μ mol Trolox equiv/g)) × 10

HeLa cells [3] = assay: WST-1 cell viability assay, HeLa; type: cell-based, human; details: for IC50: WST-1
Method: (§1) Since it is an unstable amino acid, the medium was supplemented with L-glutamine immediately prior.
(§2) WST-1 Cell Proliferation test, a product of the Roche Company is a colourimetric assay based on the cleavage of a tetrazolium salt by mitochondrial dehydrogenases to generate formazan in living cells. This assay is simple because only 10 μL of WST-1 reactant is added to 100 μL media on a 96-well plate. The cells were counted with a haemocytometer immediately before the subsequent procedures. The HeLa and PNT1A cells were used for seeding, with 5 × 10^3 cells per well, and then incubated overnight in a humidified atmosphere (37 °C with 5% CO2).
(§3) The next day, WST-1 is added to cells treated with S-1 as a cytotoxic reagent and the incubation is continued for an additional 1−2 h in a humidified atmosphere. One of the advantages of the WST-1 test is that colour change (yellow) can be seen with the naked eye.
(§4) After incubation, the plate was shaken well for 1 min. The absorbance is then measured at 450 nm versus a 650 nm reference by using a plate reader (M5, Spectra MAX) and SoftMax Pro software from Molecular Devices to compare experimental samples to controls.
(§5) IC50 is a measure used to estimate the potency of a material that inhibits a specific biological or biochemical function.
We determined the cell viability of CC cell line HeLa grown in 96-well plates for 24, 48, 72 h and treated with increasing concentrations (0, 2.5, 5, 10, 25, 50, 100, 200 μM) of S-1. Cell viability was evaluated with colourimetric WST-1 assay as described previously tested on the splitting of the tetrazolium salt by mitochondria dehydrogenases in viable cell. […] The number of viable cells was then quantified using trypan blue exclusion.

HeLa cells [4] = assay: Intracellular total oxidant status (TOS); type: cell-based, human
Method: The amount of cellular TOS was measured using an automated colourimetric reading process advanced by Erel[26]. In this method, the oxidation reaction is increased by the presence of excess glycerol in the reaction medium. Ferric ion forms a coloured complex with chromogen orange in an acidic environment. The spectrophotometrically measurable colour intensity is concerned to the whole level of oxidant molecules existent in the specimen. The assay is calibrated with H2O2, and the results are expressed in terms of micromolar H2O2 per mg protein (μmol H2O2 Equiv./mg protein).

PNT1-A cells = assay: WST-1 cell viability assay, PNT1-A; type: cell-based, human; details: PNT1-A 24 h
Method: as §1, §2, §3, §4, §5

CA-IX = details: read-out: Ki value of CA-IX; cited from earlier work
[5] = Stability of the imine bond in the assay medium; type: physicochemical

| IC50 (HeLa cells [3]; Homo sapiens, HeLa 24 h) | IC50 (HeLa cells [3]; Homo sapiens, HeLa 48 h) | IC50 (HeLa cells [3]; Homo sapiens, HeLa 72 h) | stability in the assay medium [5] | Structure (SMILES) | TAS value (HeLa cells [1]) | OSI value (HeLa cells [2]; positive control, from TOS and TAS) | IC50 (HeLa cells [3]; HeLa 24 h) | IC50 (HeLa cells [3]; HeLa 48 h) | IC50 (HeLa cells [3]; HeLa 72 h) | TOS level (HeLa cells [4]; positive control group) | IC50 (PNT1-A cells) | Ki (CA-IX) | OSI value compared with Cisplatin (HeLa cells [2]; 100 μM concentration) | viability at 200 µM (HeLa cells [3]; Homo sapiens, HeLa, 200 μM, 48 h incubated, read-out: greatest viability loss) | TOS level compared with Cisplatin (HeLa cells [4]; doses 50, 100 µM) | IC50 (PNT1-A cells; Homo sapiens, PNT1A) |
| --- | --- | --- | --- | --- | --- | --- | --- | --- | --- | --- | --- | --- | --- | --- | --- | --- |
|  |  |  |  | N.N.[Cl][Pt][Cl] [Cisplatin, cisplatin, reference compound] | 0.67 mmol Trolox equiv/mg protein | 1.72 | 28.9 µM | 7.6 µM | 6.1 µM | 11.49 μmol H2O2 Equiv./mg protein | 13.4 µM |  |  |  |  |  |
| 25.2 µM | 42.9 µM | 84.1 µM | stable | NS(=O)(=O)c1ccc(N=Cc2cc(Cl)cc(Cl)c2O)cc1 [S-1, 4-[(3,5-Dichloro-2-hydroxybenzylidene)amino]benzenesulfonamide] |  |  |  |  |  |  |  | 0.0356 µM | too close to the level of Cisplatin | 5.5% | nearly same effect as Cisplatin | 198 µM |
